Test results published in patent US10130601B2, “Use of a composition comprising fish oil and juice for the treatment of inflammation” (Smartfish AS, priority 2013, dated 2018).

What was measured:
[1] = test system: inflammatory genes in peripheral blood mononuclear cells; experiment: Inflammatory gene transcription in peripheral blood mononuclear cells of ALS patients; format: in vivo, human; conditions: PBMCs
Excerpt: The aim of this study was to investigate in vivo baseline inflammatory gene transcription in peripheral blood mononuclear cells and the effects of tozilizumab (Actemra®) in 11 ALS patients and also measure the disability before and after the therapy comparing the FRS-R score (Functional Rating Scale). Fiala et al., (to be published). The patients were free to take nutritional supplements. Three patients were taking the composition used in the present invention, transcription results are presented in Example 1 together with the results from the ALSFRS-R score (The Amyotrophic Lateral Sclerosis Functional Rating Scale).
In vivo baseline inflammatory gene transcription in peripheral blood mononuclear cells of 11 ALS patients and the effects of tocilizumab (Actemra®) (cytokine antagonist) infusions were studied tocilizumab inhibits global interleukin-6 (IL6) signaling, a key mechanism in chronic rheumatoid disorder.
At base line one half of the ALS subjects had strong inflammatory activation (Group 1) (8 genes up regulated >4-fold, P<0.05 vs. controls) and the other half (Group 2) had weak activation (Group 2).

[2] = ALSFRS-R score (self-reported) in ALS patients; format: in vivo, human
Excerpt: Patients in the study self-reported the ALSFRS-R score. The Amyotrophic Lateral Sclerosis Functional Rating Scale (ALSFRS-R) is a score from 0-48 which assesses disability in patients with MND. It was developed by Cedarbaum and colleagues (Cedarbaum J M. The ALSFRS-R: a revised ALS functional rating scale that incorporates assessments of respiratory function. BDNF ALS Study Group (Phase III). J Neurol Sci 1999; 169: 13-21). There are twelve questions, some asking about daily activities and how much help a patient needs with them, and some about specific symptoms.
1 for 8 months, no. 2 for 2 months, no. 6 for 4 months, no 7 for 5 months, and no. 11 for 4 months (Table 1). […] 1: 2.6 loss to 0.4 loss, no. 6: from 0.7 loss to 1 point gain, no. 11: from 3.5 loss to 0.5 loss. Said three patients were the patients receiving the composition of the present invention.

tocilizumab [Actemra]
regulation of inflammatory genes after infusions ([1]; ALS patients of Group 1 (strong inflammation)): down regulation
regulation of inflammatory genes after infusions ([1]; ALS patients of Group 2 (weak inflammation)): up regulation
FRS-R change After Actemra ([2]; patient #1, spinal ALS, Group 1, before −2.6, treated 8 months, also took the composition): −0.4 points/mo
FRS-R change After Actemra ([2]; patient #2, spinal ALS, Group 1, before −1.3, treated 2 months): −0.75 points/mo
FRS-R change After Actemra ([2]; patient #6, spinal ALS, Group 2, before −0.7, treated 4 months, also took the composition): +1.0 points/mo
FRS-R change After Actemra ([2]; patient #7, spinal ALS, Group 2, before −0.37, treated 5 months): −2.0 points/mo
FRS-R change After Actemra ([2]; patient #11, spinal ALS, Group unknown, before −3.5, treated 4 months, also took the composition): −0.5 points/mo
